Experimental data as given in the NIST ThermoML archive (doi:10.1021/je900596d).
Numbers after ± are expanded uncertainties.

Conditions: Vibrating tube method

FC(F)=C(F)C(F)(F)F [hexafluoropropene]
Conditions | mass density [kg/m3]
357.01 K, 9852.5 kPa, Liquid | 1135.74 ± 1.2
357.01 K, 9892.6 kPa, Liquid | 1136.38 ± 1.2
357.01 K, 9933 kPa, Liquid | 1137.03 ± 1.2
357.01 K, 9973.2 kPa, Liquid | 1137.69 ± 1.2
357.06 K, 1.6 kPa, Fluid (supercritical or subcritical phases) | 0.18 ± 0.03
357.06 K, 3.4 kPa, Fluid (supercritical or subcritical phases) | 0.25 ± 0.03
357.06 K, 4.2 kPa, Fluid (supercritical or subcritical phases) | 0.26 ± 0.03
357.06 K, 4.9 kPa, Fluid (supercritical or subcritical phases) | 0.29 ± 0.03
357.06 K, 6.3 kPa, Fluid (supercritical or subcritical phases) | 0.31 ± 0.03
357.06 K, 6.6 kPa, Fluid (supercritical or subcritical phases) | 0.32 ± 0.03
357.06 K, 7 kPa, Fluid (supercritical or subcritical phases) | 0.35 ± 0.03
357.06 K, 7.4 kPa, Fluid (supercritical or subcritical phases) | 0.43 ± 0.03
357.06 K, 9.1 kPa, Fluid (supercritical or subcritical phases) | 0.47 ± 0.03
357.06 K, 9.5 kPa, Fluid (supercritical or subcritical phases) | 0.49 ± 0.03
357.06 K, 11 kPa, Fluid (supercritical or subcritical phases) | 0.56 ± 0.03
357.06 K, 12.4 kPa, Fluid (supercritical or subcritical phases) | 0.6 ± 0.03
357.06 K, 13.5 kPa, Fluid (supercritical or subcritical phases) | 0.66 ± 0.03
357.06 K, 14.9 kPa, Fluid (supercritical or subcritical phases) | 0.76 ± 0.03
357.06 K, 15.9 kPa, Fluid (supercritical or subcritical phases) | 0.79 ± 0.03
357.06 K, 17 kPa, Fluid (supercritical or subcritical phases) | 0.85 ± 0.03
357.06 K, 19.1 kPa, Fluid (supercritical or subcritical phases) | 0.98 ± 0.03
357.06 K, 21.6 kPa, Fluid (supercritical or subcritical phases) | 1.08 ± 0.03
357.06 K, 22.7 kPa, Fluid (supercritical or subcritical phases) | 1.11 ± 0.03
357.06 K, 24 kPa, Fluid (supercritical or subcritical phases) | 1.15 ± 0.03
357.06 K, 25.1 kPa, Fluid (supercritical or subcritical phases) | 1.25 ± 0.03
357.06 K, 26.3 kPa, Fluid (supercritical or subcritical phases) | 1.3 ± 0.03
357.06 K, 27.3 kPa, Fluid (supercritical or subcritical phases) | 1.36 ± 0.03
357.06 K, 28.4 kPa, Fluid (supercritical or subcritical phases) | 1.4 ± 0.03
357.06 K, 29.7 kPa, Fluid (supercritical or subcritical phases) | 1.46 ± 0.03
357.06 K, 30.8 kPa, Fluid (supercritical or subcritical phases) | 1.51 ± 0.03
357.06 K, 31.8 kPa, Fluid (supercritical or subcritical phases) | 1.61 ± 0.03
357.06 K, 34 kPa, Fluid (supercritical or subcritical phases) | 1.66 ± 0.03
357.06 K, 35.1 kPa, Fluid (supercritical or subcritical phases) | 1.71 ± 0.03
357.06 K, 36.4 kPa, Fluid (supercritical or subcritical phases) | 1.75 ± 0.03
357.06 K, 37.5 kPa, Fluid (supercritical or subcritical phases) | 1.84 ± 0.03
357.06 K, 38.5 kPa, Fluid (supercritical or subcritical phases) | 1.93 ± 0.03
357.06 K, 39.6 kPa, Fluid (supercritical or subcritical phases) | 1.96 ± 0.03
357.06 K, 40.6 kPa, Fluid (supercritical or subcritical phases) | 2.02 ± 0.03
357.06 K, 48 kPa, Fluid (supercritical or subcritical phases) | 2.38 ± 0.03
357.06 K, 58.6 kPa, Fluid (supercritical or subcritical phases) | 2.86 ± 0.03
357.06 K, 69.5 kPa, Fluid (supercritical or subcritical phases) | 3.37 ± 0.03
357.06 K, 80.9 kPa, Fluid (supercritical or subcritical phases) | 3.92 ± 0.03
357.06 K, 92.8 kPa, Fluid (supercritical or subcritical phases) | 4.57 ± 0.03
357.06 K, 104.1 kPa, Fluid (supercritical or subcritical phases) | 5.19 ± 0.03
357.06 K, 115 kPa, Fluid (supercritical or subcritical phases) | 5.66 ± 0.03
357.06 K, 125.7 kPa, Fluid (supercritical or subcritical phases) | 6.22 ± 0.03
357.06 K, 136.4 kPa, Fluid (supercritical or subcritical phases) | 6.83 ± 0.03
357.06 K, 148.3 kPa, Fluid (supercritical or subcritical phases) | 7.41 ± 0.04
357.06 K, 159.2 kPa, Fluid (supercritical or subcritical phases) | 8.05 ± 0.04
357.06 K, 170 kPa, Fluid (supercritical or subcritical phases) | 8.65 ± 0.04
357.06 K, 180.8 kPa, Fluid (supercritical or subcritical phases) | 9.19 ± 0.04
357.06 K, 191.6 kPa, Fluid (supercritical or subcritical phases) | 9.77 ± 0.04
357.06 K, 206.8 kPa, Fluid (supercritical or subcritical phases) | 10.67 ± 0.04
357.06 K, 232.7 kPa, Fluid (supercritical or subcritical phases) | 11.91 ± 0.04
357.06 K, 245.6 kPa, Fluid (supercritical or subcritical phases) | 12.63 ± 0.04
357.06 K, 258.5 kPa, Fluid (supercritical or subcritical phases) | 13.31 ± 0.04
357.06 K, 271.2 kPa, Fluid (supercritical or subcritical phases) | 14.01 ± 0.04
357.06 K, 284 kPa, Fluid (supercritical or subcritical phases) | 14.69 ± 0.04
357.06 K, 296.8 kPa, Fluid (supercritical or subcritical phases) | 15.39 ± 0.04
357.06 K, 309.5 kPa, Fluid (supercritical or subcritical phases) | 16.12 ± 0.04
357.06 K, 322.1 kPa, Fluid (supercritical or subcritical phases) | 16.71 ± 0.04
357.06 K, 334.9 kPa, Fluid (supercritical or subcritical phases) | 17.44 ± 0.04
357.06 K, 347.5 kPa, Fluid (supercritical or subcritical phases) | 18.11 ± 0.04
357.06 K, 360.2 kPa, Fluid (supercritical or subcritical phases) | 18.86 ± 0.04
357.06 K, 372.7 kPa, Fluid (supercritical or subcritical phases) | 19.48 ± 0.04
357.06 K, 385.4 kPa, Fluid (supercritical or subcritical phases) | 20.16 ± 0.04
357.06 K, 401.9 kPa, Fluid (supercritical or subcritical phases) | 21.1 ± 0.04
357.06 K, 415.8 kPa, Fluid (supercritical or subcritical phases) | 21.9 ± 0.05
357.06 K, 430.3 kPa, Fluid (supercritical or subcritical phases) | 22.74 ± 0.05
357.06 K, 445 kPa, Fluid (supercritical or subcritical phases) | 23.53 ± 0.05
357.06 K, 459.8 kPa, Fluid (supercritical or subcritical phases) | 24.37 ± 0.05
357.06 K, 474.6 kPa, Fluid (supercritical or subcritical phases) | 25.15 ± 0.05
357.06 K, 489.6 kPa, Fluid (supercritical or subcritical phases) | 26 ± 0.05
357.06 K, 504.5 kPa, Fluid (supercritical or subcritical phases) | 26.95 ± 0.05
357.06 K, 519.5 kPa, Fluid (supercritical or subcritical phases) | 27.84 ± 0.05
357.06 K, 534.4 kPa, Fluid (supercritical or subcritical phases) | 28.66 ± 0.05
357.06 K, 549.4 kPa, Fluid (supercritical or subcritical phases) | 29.55 ± 0.05
357.06 K, 564.2 kPa, Fluid (supercritical or subcritical phases) | 30.41 ± 0.05
357.06 K, 579 kPa, Fluid (supercritical or subcritical phases) | 31.28 ± 0.05
357.06 K, 593.8 kPa, Fluid (supercritical or subcritical phases) | 32.12 ± 0.06
357.06 K, 604.8 kPa, Fluid (supercritical or subcritical phases) | 32.81 ± 0.06
357.06 K, 619.6 kPa, Fluid (supercritical or subcritical phases) | 33.65 ± 0.06
357.06 K, 634.3 kPa, Fluid (supercritical or subcritical phases) | 34.49 ± 0.06
357.06 K, 648.9 kPa, Fluid (supercritical or subcritical phases) | 35.43 ± 0.06
357.06 K, 663.4 kPa, Fluid (supercritical or subcritical phases) | 36.27 ± 0.06
357.06 K, 677.9 kPa, Fluid (supercritical or subcritical phases) | 37.14 ± 0.06
357.06 K, 692.4 kPa, Fluid (supercritical or subcritical phases) | 37.98 ± 0.06
357.06 K, 706.7 kPa, Fluid (supercritical or subcritical phases) | 38.87 ± 0.06
357.06 K, 721 kPa, Fluid (supercritical or subcritical phases) | 39.69 ± 0.06
357.06 K, 735.2 kPa, Fluid (supercritical or subcritical phases) | 40.55 ± 0.07
357.06 K, 749.2 kPa, Fluid (supercritical or subcritical phases) | 41.45 ± 0.07
357.06 K, 763.3 kPa, Fluid (supercritical or subcritical phases) | 42.35 ± 0.07
357.06 K, 777.3 kPa, Fluid (supercritical or subcritical phases) | 43.14 ± 0.07
357.06 K, 791.2 kPa, Fluid (supercritical or subcritical phases) | 44.03 ± 0.07
357.06 K, 805.1 kPa, Fluid (supercritical or subcritical phases) | 44.87 ± 0.07
357.06 K, 818.9 kPa, Fluid (supercritical or subcritical phases) | 45.78 ± 0.07
357.06 K, 832.6 kPa, Fluid (supercritical or subcritical phases) | 46.65 ± 0.07
357.06 K, 846.3 kPa, Fluid (supercritical or subcritical phases) | 47.44 ± 0.07
357.06 K, 859.8 kPa, Fluid (supercritical or subcritical phases) | 48.34 ± 0.08
357.06 K, 873.5 kPa, Fluid (supercritical or subcritical phases) | 49.21 ± 0.08
357.06 K, 887 kPa, Fluid (supercritical or subcritical phases) | 50.07 ± 0.08
357.06 K, 900.7 kPa, Fluid (supercritical or subcritical phases) | 50.9 ± 0.08
357.06 K, 927.4 kPa, Fluid (supercritical or subcritical phases) | 52.68 ± 0.08
357.06 K, 940.7 kPa, Fluid (supercritical or subcritical phases) | 53.53 ± 0.08
357.06 K, 953.9 kPa, Fluid (supercritical or subcritical phases) | 54.39 ± 0.08
357.06 K, 966.4 kPa, Fluid (supercritical or subcritical phases) | 55.2 ± 0.08
357.06 K, 980.4 kPa, Fluid (supercritical or subcritical phases) | 56.19 ± 0.09
357.06 K, 992.5 kPa, Fluid (supercritical or subcritical phases) | 56.92 ± 0.09
357.06 K, 1019.3 kPa, Fluid (supercritical or subcritical phases) | 58.76 ± 0.09
357.06 K, 1047.3 kPa, Fluid (supercritical or subcritical phases) | 60.62 ± 0.09
357.06 K, 1075 kPa, Fluid (supercritical or subcritical phases) | 62.53 ± 0.09
357.06 K, 1101.6 kPa, Fluid (supercritical or subcritical phases) | 64.29 ± 0.1
357.06 K, 1126.7 kPa, Fluid (supercritical or subcritical phases) | 66.03 ± 0.1
357.06 K, 1151 kPa, Fluid (supercritical or subcritical phases) | 67.74 ± 0.1
357.06 K, 1176.3 kPa, Fluid (supercritical or subcritical phases) | 69.58 ± 0.1
357.06 K, 1201.9 kPa, Fluid (supercritical or subcritical phases) | 71.4 ± 0.1
357.06 K, 1228.4 kPa, Fluid (supercritical or subcritical phases) | 73.29 ± 0.11
357.06 K, 1259 kPa, Fluid (supercritical or subcritical phases) | 75.66 ± 0.11
357.06 K, 1289.5 kPa, Fluid (supercritical or subcritical phases) | 77.81 ± 0.11
357.06 K, 1322.3 kPa, Fluid (supercritical or subcritical phases) | 80.32 ± 0.12
357.06 K, 1338.6 kPa, Fluid (supercritical or subcritical phases) | 81.39 ± 0.12
357.06 K, 1356.1 kPa, Fluid (supercritical or subcritical phases) | 82.86 ± 0.12
357.06 K, 1372.3 kPa, Fluid (supercritical or subcritical phases) | 84.1 ± 0.12
357.06 K, 1389.3 kPa, Fluid (supercritical or subcritical phases) | 85.41 ± 0.12
357.06 K, 1417.8 kPa, Fluid (supercritical or subcritical phases) | 87.61 ± 0.13
357.06 K, 1448.6 kPa, Fluid (supercritical or subcritical phases) | 89.98 ± 0.13
357.06 K, 1476.5 kPa, Fluid (supercritical or subcritical phases) | 92.14 ± 0.14
357.06 K, 1508.7 kPa, Fluid (supercritical or subcritical phases) | 94.88 ± 0.14
357.06 K, 1525.6 kPa, Fluid (supercritical or subcritical phases) | 96.25 ± 0.14
357.06 K, 1543.7 kPa, Fluid (supercritical or subcritical phases) | 97.72 ± 0.14
357.06 K, 1568 kPa, Fluid (supercritical or subcritical phases) | 99.77 ± 0.15
357.06 K, 1585.8 kPa, Fluid (supercritical or subcritical phases) | 101.24 ± 0.15
357.06 K, 1616.4 kPa, Fluid (supercritical or subcritical phases) | 103.7 ± 0.15
357.06 K, 1633.9 kPa, Fluid (supercritical or subcritical phases) | 105.22 ± 0.16
